21 molecules from patent US20240228501A1, “IMIDAZOLE-CONTAINING CONDENSED RING DERIVATIVE, PREPARATION METHOD THEREFOR, AND APPLICATION THEREOF IN MEDICINE” (CHANGCHUN GENESCIENCE PHARMACEUTICAL CO., LTD., priority 2021, published 2024) can be followed below.

What is called IC50 is the concentration at which inhibition is half-maximal.

In this assay the target is T1, human NK-3 receptor (Homo sapiens, UniProt P29371).
T1 construct: expressed in transfected cells; host or cells: HEK293
T1 sequence (P29371 1-465): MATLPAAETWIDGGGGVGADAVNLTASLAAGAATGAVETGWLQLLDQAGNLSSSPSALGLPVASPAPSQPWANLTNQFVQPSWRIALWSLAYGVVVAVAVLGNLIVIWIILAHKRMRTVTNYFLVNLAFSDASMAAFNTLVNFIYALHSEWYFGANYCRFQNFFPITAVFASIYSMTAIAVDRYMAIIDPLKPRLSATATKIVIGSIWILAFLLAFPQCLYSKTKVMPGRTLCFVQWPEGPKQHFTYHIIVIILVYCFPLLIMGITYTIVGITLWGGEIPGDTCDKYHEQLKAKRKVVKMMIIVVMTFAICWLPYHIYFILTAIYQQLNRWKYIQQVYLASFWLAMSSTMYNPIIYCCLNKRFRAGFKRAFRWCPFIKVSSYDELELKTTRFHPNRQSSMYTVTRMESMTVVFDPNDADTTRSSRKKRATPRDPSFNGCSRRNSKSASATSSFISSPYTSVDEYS
The assay is described as follows: Antagonistic activity on human NK-3 receptor in human NK-3R/HEK293 stably transfected cells (Fluo-4, FLIPR, Neurokinin B as agonist). The class given is cell-based. As to conditions: human NK-3R/HEK293 cells. As for the experimental part:
Test Example 1: Determination of Activity of Compounds of the Present Invention on Human NK-3 Receptor
This method is used to determine antagonistic effects of the compounds of the present invention on the activity of human NK-3 receptor proteins expressed in cell lines stably transfected with human NK-3R/HEK293.
2.1 The cell lines stably transfected with human NK-3R/HEK293 were inoculated in a 384-well cell culture plate at a inoculation density of 12,000 cells/well/25 μL, and cultured at 37° C. and 5% CO2 overnight;
2.2 20× Component A was frozen and thawed to room temperature, diluted 2× with Assay Buffer to working concentration, and kept at room temperature for later use;
2.3 The cell culture plate was equilibrated at room temperature for 10 min, the culture medium was removed, and 20 μL of Assay Buffer and 20 μL of 2× Component A […] were added, followed by centrifugation at 200 g at room temperature for 3-5 sec, and incubation at 37° C. for 2 h;
2.4 The compound was diluted 3 times with DMSO in 384 PP_DMSO plate, and then 240 nl/well of the compound was transferred into a working plate with Echo 550, centrifugated at 200 g at room temperature for 1 min; 40 μl of Assay Buffer was added into the working plate, centrifugated at 200 g at room temperature for 1 min, and then fully mixed in an oscillator at 2500 rpm for 20 min, and then centrifugated at 200 g at room temperature for 1 min for later use;
2.5 2.5 nM Neurokinin B TFA (6×) was prepared from Assay Buffer, 50 uL of which was transferred onto 3657 plate for later use;
2.6 The cell culture plate was taken out and left to stand at room temperature for 10 min, then […] the compound diluted in step 2.4 was added into corresponding wells, and the cell culture plate was left to stand at 25° C. for 30 min; and
2.7 10 μL of the compound diluted in step 2.5 was added into the corresponding experimental wells with FLIPR Tetra, and data was collected.
The antagonistic activity of the compounds of the present invention on the human NK-3 receptor was determined through the above experiments, to obtain inhibition curves of the compounds of the present invention and determine concentrations (IC50) of the corresponding compounds that inhibit 50% of the reference agonist.
`Cc1nsc(-c2nc(N3C[C@H](O)CC3=O)c3n2CCN(C(=O)c2ccc(F)cc2)[C@@H]3C)n1` [Compound 103, (R)-1-((R)-7-(4-fluorobenzoyl)-8-methyl-3-(3-methyl-1,2,4-thiadiazol-5-yl)-5,6,7,8-tetrahydroimidazo[1,5-a]pyrazin-1-yl)-4-hydroxypyrrolidin-2-one] came in with an IC50 of 5.7 nM.
Under `Cc1nsc(-c2nc(N3C[C@@H](O)CC3=O)c3n2CCN(C(=O)c2ccc(F)cc2)[C@@H]3C)n1` [Compound 104, (S)-1-((R)-7-(4-fluorobenzoyl)-8-methyl-3-(3-methyl-1,2,4-thiadiazol-5-yl)-5,6,7,8-tetrahydroimidazo[1,5-a]pyrazin-1-yl)-4-hydroxypyrrolidin-2-one] stands 31 nM; under `Cc1nsc(-c2nc(N3CCOCCC3=O)c3n2CCN(C(=O)c2ccc(F)cc2)[C@@H]3C)n1` [Compound 114, (R)-1-[7-(4-fluorobenzoyl)-8-methyl-3-(3-methyl-1,2,4-thiadiazol-5-yl)-5,6,7,8-tetrahydroimidazo[1,5-a]pyrazin-1-yl]-1,4-azepan-5-one], 28.7 nM; under `CO[C@@H]1CC(=O)N(c2nc(-c3nc(C)ns3)n3c2[C@@H](C)N(C(=O)c2ccc(F)cc2)CC3)C1` [Compound 115, (R)-1-[(R)-7-(4-fluorobenzoyl)-8-methyl-3-(3-methyl-1,2,4-thiadiazol-5-yl)-5,6,7,8-tetrahydroimidazo[1,5-a]pyrazin-1-yl]-4-methoxypyrrolidin-2-one], 22.7 nM.
Molecule `Cc1nsc(-c2nc(N3CCC(O)CC3=O)c3n2CCN(C(=O)c2ccc(F)cc2)[C@@H]3C)n1` (stereo partly drawn) [Compound 116, 1-[(R)-7-(4-fluorobenzoyl)-8-methyl-3-(3-methyl-1,2,4-thiadiazol-5-yl)-5,6,7,8-tetrahydroimidazo[1,5-a]pyrazin-1-yl]-4-hydroxypiperidin-2-one] had an IC50 of 11.9 nM. This IC50 lies about 1.9-fold lower than the previous one.
The value for `Cc1nsc(-c2nc(N3CCCCCC3=O)c3n2CCN(C(=O)c2ccc(F)cc2)[C@@H]3C)n1` [Compound 117] was 72.5 nM; that for `C[C@@H]1c2c(N3CCCC3=O)nc(-c3nc(C(F)(F)F)cs3)n2CCN1C(=O)c1ccc(F)cc1` [Compound 118, (R)-1-(7-(4-fluorobenzoyl)-8-methyl-3-(4-(trifluoromethyl)thiazol-2-yl)-5,6,7,8-tetrahydroimidazo[1,5-a]pyrazin-1-yl)pyrrolidin-2-one] was 51.7 nM.
Molecule `C[C@@H]1c2c(N3C[C@H](O)CC3=O)nc(-c3nc(C(F)(F)F)cs3)n2CCN1C(=O)c1ccc(F)cc1` [Compound 120, (R)-1-((R)-7-(4-fluorobenzoyl)-8-methyl-3-(4-(trifluoromethyl)thiazol-2-yl)-5,6,7,8-tetrahydroimidazo[1,5-a]pyrazin-1-yl)-4-hydroxypyrrolidin-2-one] yielded a half-inhibitory concentration (IC50) of 18.8 nM. This IC50 lies about 2.8-fold lower than the previous one.
In the case of `Cc1nsc(-c2nc(N3CCNCC3=O)c3n2CCN(C(=O)c2ccc(F)cc2)[C@@H]3C)n1` [Compound 123, (R)-1-(7-(4-fluorobenzoyl)-8-methyl-3-(3-methyl-1,2,4-thiadiazol-5-yl)-5,6,7,8-tetrahydroimidazo[1,5-a]pyrazin-1-yl)piperazin-2-one], the IC50 is 23 nM.
`Cc1nsc(-c2nc(N3CCCC3=O)c3n2CCN(C(=O)c2ccc(F)cc2C)[C@@H]3C)n1` [Compound 128, (R)-1-(7-(4-fluoro-2-methylbenzoyl)-8-methyl-3-(3-methyl-1,2,4-thiadiazol-5-yl)-5,6,7,8-tetrahydroimidazo[1,5-a]pyrazin-1-yl)pyrrolidin-2-one] registered an IC50 of 84.6 nM.
As to `Cc1nsc(-c2nc(N3C[C@H](N)CC3=O)c3n2CCN(C(=O)c2ccc(F)cc2)[C@@H]3C)n1` [Compound 129], the IC50 was found to be 42.5 nM.
In turn, `CC(=O)N[C@@H]1CC(=O)N(c2nc(-c3nc(C)ns3)n3c2[C@@H](C)N(C(=O)c2ccc(F)cc2)CC3)C1` [Compound 132, N—{(R)-1-[(R)-7-(4-fluorobenzoyl)-8-methyl-3-(3-methyl-1,2,4-thiadiazol-5-yl)-5,6,7,8-tetrahydroimidazo[1,5-a]pyrazin-1-yl]-5-oxopyrrolidin-3-yl}acetamide] had an IC50 of 16.1 nM.
With `CC(=O)O[C@@H]1CC(=O)N(c2nc(-c3nc(C)ns3)n3c2[C@@H](C)N(C(=O)c2ccc(F)cc2)CC3)C1` [Compound 133, (R)-1-[(R)-7-(4-fluorobenzoyl)-8-methyl-3-(3-methyl-1,2,4-thiadiazol-5-yl)-5,6,7,8-tetrahydroimidazo[1,5-a]pyrazin-1-yl]-5-oxopyrrolidin-3-ylacetate], the IC50 came to 18.6 nM.
`Cc1nsc(-c2nc(N3COCC3=O)c3n2CCN(C(=O)c2ccc(F)cc2)C3C)n1` (stereo not drawn) [Compound 169, 3-(7-(4-fluorobenzoyl)-8-methyl-3-(3-methyl-1,2,4-thiadiazol-5-yl)-5,6,7,8-tetrahydroimidazo[1,5-a]pyrazin-1-yl)oxazolidin-4-one] showed an IC50 of 65.7 nM.
Consider `C[C@@H]1c2c(N3CCCC3=O)nc(-c3nc(CF)ns3)n2CCN1C(=O)c1ccc(F)cc1` [Compound 184, (R)-1-(7-(4-fluorobenzoyl)-3-(3-(fluoromethyl)-1,2,4-thiadiazol-5-yl)-8-methyl-5,6,7,8-tetrahydroimidazo[1,5-a]pyrazin-1-yl)pyrrolidin-2-one], for which the IC50 was determined as 46.5 nM.
`C[C@@H]1c2c(N3CCCC3=O)nc(-c3nc([C@@H](C)F)ns3)n2CCN1C(=O)c1ccc(F)cc1` [Compound 186, 1-((R)-7-(4-fluorobenzoyl)-3-(3-((R)-1-fluoroethyl)-1,2,4-thiadiazol-5-yl)-8-methyl-5,6,7,8-tetrahydroimidazo[1,5-a]pyrazin-1-yl)pyrrolidin-2-one] came in with an IC50 of 88.1 nM.
The molecule `Cc1nsc(-c2nc(C(F)F)c3n2CCN(C(=O)c2ccc(F)cc2)[C@@H]3C)n1` [Compound 197, (R)-(1-(difluoromethyl)-8-methyl-3-(3-methyl-1,2,4-thiadiazol-5-yl)-5,6-dihydroimidazo[1,5-a]pyrazin-7 (8H)-yl)(4-fluorophenyl)methanone] came in with an IC50 of 216 nM.
Take `Cc1nsc(-c2nc([C@H]3CCCC3=O)c3n2CCN(C(=O)c2ccc(F)cc2)[C@@H]3C)n1` [Compound 211, (R)-2-((R)-7-(4-fluorobenzoyl)-8-methyl-3-(3-methyl-1,2,4-thiadiazol-5-yl)-5,6,7,8-tetrahydroimidazo[1,5-a]pyrazin-1-yl)cyclopentan-1-one]: the IC50 worked out at 284 nM.
Under `CC(=O)Cc1nc(-c2nc(C)ns2)n2c1[C@@H](C)N(C(=O)c1ccc(F)cc1)CC2` [Compound 214, (R)-1-(7-(4-fluorobenzoyl)-8-methyl-3-(3-methyl-1,2,4-thiadiazol-5-yl)-5,6,7,8-tetrahydroimidazo[1,5-a]pyrazin-1-yl)propan-2-one] stands 246 nM; under `Cc1nsc(-c2nc(-c3ccco3)c3n2CCN(C(=O)c2ccc(F)cc2)[C@@H]3C)n1` [Compound 218, (R)-(4-fluorophenyl)(1-(furan-2-yl)-8-methyl-3-(3-methyl-1,2,4-thiadiazol-5-yl)-5,6-dihydroimidazo[1,5-a]pyrazin-7 (8H)-yl)methanone], 225 nM; under `Cc1nsc(-c2nc(N3CCCC3=O)c3n2CCN(C(=O)c2cc(F)c(F)c(F)c2)[C@@H]3C)n1` [Compound 220, (R)-1-(8-methyl-3-(3-methyl-1,2,4-thiadiazol-5-yl)-7-(3,4,5-trifluorobenzoyl)-5,6,7,8-tetrahydroimidazo[1,5-a]pyrazin-1-yl)pyrrolidin-2-one], 28 nM.
